From patent EP0425902A1, “Use of isosorbide 2-mononitrate in the preparation of pharmaceutical compositions for treating angina pectoris” (ISCOFAR Sas di Paolo E. Ghirardi, priority 1989, dated 1991)
Values joined by “and” are separate entries in the source; they are usually repeats but may differ in a detail not shown here. Identical values can stand only once. “Also recorded” adds a separate entry of the source.

Columns and labels:
[1] = tested on: isolated rabbit heart; assay: Vasodilatory effect on isolated rabbit heart with vasopressin-induced spasm (coronary perfusion pressure)
Description: All nitroderivatives induce a tolerance phenomenon but the degree of the lack of the vasodilatory effect was lesser in the case of isosorbide 2-nitroderivative. […] Isolated rabbit hearts and aortic strips were used as experimental model to evaluate drugs acting on coronary resistance and vascular contractility.
Vasodilatory effect was evaluated on isolated rabbit heart in presence of vasopressin-induced spasm by using concentration of 10⁻⁵M of the tested compounds.

[2] = tested on: cyclic GMP; assay: Cyclic GMP accumulation in laboratory tests
Description: It has been furthermore shown through the laboratory tests that no relationship between the amount of the measured cyclic guanine mono-phosphate (GMP) and the extent of the inhibitory effect can be observed.
In our experiments, the development of nitrate tolerance seems to be related to cyclic GMP accumulation, being greater in the case of NTG, thus confirming that SH groups consumption is the molecular mechanism responsible for this phenomenon.

[3] = tested on: rabbit aortic strips; assay: Induction of nitrate tolerance in rabbit aortic strips preincubated with nitroderivative
[4] = Clinical trials of tongue absorption administration on onset of anginal attack; details: human, in vivo
[5] = Long-period stability of active principle in tablets
[6] = Acute treatment by tongue absorption, pulmonary artery pressure by cardiac catheter; details: in vivo
[7] = Clinical trial, ergometer bicycle effort test before and after two months of chronic 2MN treatment; details: human, in vivo

Row | SMILES | inhibition at 10 µM ([1]; Oryctolagus cuniculus, isolated rabbit heart, vasopressin-induced spasm, 10⁻⁵M, read-out: reduce coronary spasm (coronary perfusion pressure, CPP)) | cyclic GMP accumulation / increase [2] | activity in reducing coronary perfusion pressure relative to other nitroderivatives [1] | degree of desensitization after induction of nitrate tolerance [3] | degree of tolerance induced [3] | effect on anginal attack [4] | loss of active principle in the pharmaceutical forms (tablets) in the long period [5] | Activity commences after taking the drug [6] | Activity lasts (average) [6] | Commencement of activity [6] | Max decrease in pulmonary artery pressure % [6] | Exercise time [7] | Max work tolerated (watt) [7] | S-T (mm) [7] | S-T Δ % [7] | anginal attacks, nitroglycerin consumption and arterial pressure [7] | tolerance after chronic treatment [7]
1 | O=[N+]([O-])OCC(CO[N+](=O)[O-])O[N+](=O)[O-] [NTG, nitroglycerin, reference compound] | 80% | greater |  |  |  |  |  |  |  |  |  |  |  |  |  |  | 
2 | O=[N+]([O-])O[C@H]1CO[C@H]2[C@@H]1OC[C@H]2O [2MN, isosorbide 2-mononitrate] |  | lesser increase | more active than 5MN and ISDN | significantly lower | lesser degree of tolerance | able to prevent anginal attack or to cause its rapid regression; also recorded: Analogous results | minimal | 3 to 4 min | 80 min | 180 s and 250 s and 230 s and 160 s and 200 s and 210 s and 204.2 s | 20% and 38% and 30% and 27% and 31% and 40% and 29% and 30.7% | 8.6 ± 1.4 min and 8.9 ± 1.1 min | 144±36 watt and 148±36 watt | 1.5±0.7 mm and 1.8±0.9 mm | -29 (P<0.05) % and -25 (P<0.05) % | noted reduction | does not give rise to tolerance
